Assay results: patent US20140256754A1, “QUINAZOLINES AS B-GLUCURONIDASE NOVEL INHIBITORS” (priority 2013, published 2014)
Like-named read-outs stand apart in the source and are kept apart here.

Assays:
PC-3 cells = experiment: MTT cytotoxicity assay against PC-3 cells; details: read-out: IC50 (μM) ± SEM, 72 h
Description: For this purpose, PC-3 cells (Prostrate Cancer)/3T3(Mouse fibroblast) were cultured in Dulbecco's Modified Eagle's Medium, supplemented with 5% of foetal bovine serum (FBS), 100 IU/mL of penicillin and 100 μg/mL of streptomycin in 25 cm^3 flask and kept in 5% CO2 incubator at 37° C. Exponentially growing cells were harvested, counted with haemocytometer and diluted with a particular medium.
Subsequently, 100 μL of DMSO was added to each well. The extent of MTT reduction to formazan within cells was calculated by measuring the absorbance at 570 nm, using a microplate ELISA reader (Spectra Max plus, Molecular Devices, Calif., USA).

β-glucuronidase = target: T1, β-glucuronidase (UniProt A3KMY8); experiment: β-Glucuronidase inhibition, spectrophotometric p-nitrophenyl-β-D-glucuronide assay; assay type: biochemical; details: for % Inhibition: test concentration not given
T1 sequence (A3KMY8 1-652): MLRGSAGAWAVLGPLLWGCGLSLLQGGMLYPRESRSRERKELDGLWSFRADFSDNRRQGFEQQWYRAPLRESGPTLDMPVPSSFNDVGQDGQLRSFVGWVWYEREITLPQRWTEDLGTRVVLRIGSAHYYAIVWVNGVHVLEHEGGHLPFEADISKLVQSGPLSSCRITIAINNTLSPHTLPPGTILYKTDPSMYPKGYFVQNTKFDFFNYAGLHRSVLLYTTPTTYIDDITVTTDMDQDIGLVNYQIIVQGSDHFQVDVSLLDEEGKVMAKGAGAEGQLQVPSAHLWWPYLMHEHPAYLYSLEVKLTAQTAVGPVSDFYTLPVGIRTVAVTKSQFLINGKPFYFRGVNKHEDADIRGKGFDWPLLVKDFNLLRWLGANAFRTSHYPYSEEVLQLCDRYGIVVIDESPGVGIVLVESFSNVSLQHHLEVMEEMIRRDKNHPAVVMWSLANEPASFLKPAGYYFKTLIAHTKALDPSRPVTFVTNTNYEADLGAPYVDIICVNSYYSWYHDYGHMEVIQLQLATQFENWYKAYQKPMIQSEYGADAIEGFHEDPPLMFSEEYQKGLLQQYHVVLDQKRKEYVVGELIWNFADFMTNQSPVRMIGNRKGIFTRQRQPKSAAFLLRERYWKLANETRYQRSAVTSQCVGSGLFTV
Description: The total reaction volume was 250 μL. […] The reaction mixture contained 185 μL of 0.1 M acetate buffer, 5 μL of test compound solution, 10 μL of (1U) enzyme solution was incubated at 37° C. for 30 min. […] All assays were run in triplicate. IC50 Values were calculated by using EZ-Fit software (Perrella Scientific Inc., Amherst, Mass., USA). These values are the mean of three independent assays.

[1] = read-out: IC50 (μM) ± SEM, mean of three independent assays

SMILES | IC50 (PC-3 cells) | IC50 (β-glucuronidase; [1]) | % Inhibition (β-glucuronidase) | IC50 (β-glucuronidase; unit inferred)
O=c1[nH]c(-c2ccccc2O)nc2ccccc12 [Compound 2, 2-(2-Hydroxyphenyl)quinazolin-4(3H)-one] | > 30 µM | 10 ± 0.54 µM | 99.1% | –
O=c1[nH]c(-c2ccc(O)cc2)nc2ccccc12 [Compound 3, 2-(4-Hydroxyphenyl)quinazolin-4(3H)-one] | > 30 µM | 22.2 ± 0.31 µM | 99.6% | –
O=c1[nH]c(-c2cccc(O)c2)nc2ccccc12 [Compound 4, 2-(3-Hydroxyphenyl)quinazolin-4(3H )-one] | > 30 µM | – | 78.5% | –
O=c1[nH]c(-c2ccc(O)c(O)c2)nc2ccccc12 [Compound 5, 2-(3,4-Dihydroxyphenyl)quinazolin-4(3H)-one] | > 30 µM | – | – | –
O=c1[nH]c(-c2cc(O)ccc2O)nc2ccccc12 [Compound 6, 2-(2,5-Dihydroxyphenyl)quinazolin-4(3H)-one] | > 30 µM | – | – | –
COc1ccc(O)c(-c2nc3ccccc3c(=O)[nH]2)c1 [Compound 7, 2-[2-Hydroxy-5-(methyloxy)phenyl]quinazolin-4(3H)-one] | > 30 µM | – | – | –
COc1ccc(-c2nc3ccccc3c(=O)[nH]2)cc1O [Compound 8, 2-[3-Hydroxy-4-(methyloxy)phenyl]quinazolin-4(3H)-one] | > 30 µM | 2.8 ± 0.042 µM | 84.0% | –
COc1ccc(-c2nc3ccccc3c(=O)[nH]2)cc1 [Compound 10, 2-[4-(Methyloxy)phenyl]quinazolin-4(3H)-one] | > 30 µM | 1.1 ± 0.05 µM | 99.7% | –
COc1ccc(-c2nc3ccccc3c(=O)[nH]2)cc1OC [Compound 11, 2-[3,4-Bis(methyloxy)phenyl]quinazolin-4(3H)-one] | > 30 µM | – | – | –
COc1cc(-c2nc3ccccc3c(=O)[nH]2)cc(OC)c1OC [Compound 12, 2-[3,4,5-Tris(methyloxy)phenyl]quinazolin-4(3H)-one] | > 30 µM | – | 97.6% | 120 ± 2.54 µM
CCOc1ccc(-c2nc3ccccc3c(=O)[nH]2)cc1 [Compound 13, 2-[4-(Ethyloxy)phenyl]quinazolin-4(3H)-one] | > 30 µM | – | – | –
CCOc1ccccc1-c1nc2ccccc2c(=O)[nH]1 [Compound 14, 2-[2-(Ethyloxy)phenyl]quinazolin-4(3H)-one] | > 30 µM | – | – | –
CCOc1cc(-c2nc3ccccc3c(=O)[nH]2)ccc1O [Compound 15, 2-[3-(Ethyloxy)-4-hydroxyphenyl]quinazolin-4(3H)-one] | > 30 µM | – | – | –
O=c1[nH]c(-c2ccccc2Cl)nc2ccccc12 [Compound 16, 2-(2-Chlorophenyl)quinazolin-4(3H)-one] | > 30 µM | – | – | –
O=c1[nH]c(-c2ccc(Cl)cc2Cl)nc2ccccc12 [Compound 17, 2-(2,4-Dichlorophenyl)quinazolin-4(3H)-one] | > 30 µM | – | – | –
O=c1[nH]c(-c2c(Cl)cccc2Cl)nc2ccccc12 [Compound 18, 2-(2,6-Dichlorophenyl)quinazolin-4(3H)-one] | > 30 µM | – | – | –
O=c1[nH]c(-c2ccc(Cl)cc2)nc2ccccc12 [Compound 19, 2-(4-Chlorophenyl)quinazolin-4(3H)-one] | > 30 µM | – | – | –
O=c1[nH]c(-c2ccccc2[N+](=O)[O-])nc2ccccc12 [Compound 20, 2-(2-Nitrophenyl)quinazolin-4(3H)-one] | > 30 µM | – | – | –
O=c1[nH]c(-c2cccc([N+](=O)[O-])c2)nc2ccccc12 [Compound 21, 2-(3-Nitrophenyl)quinazolin-4(3H)-one] | > 30 µM | 50.4 ± 1.4 µM | 95.1% | –
O=c1[nH]c(-c2ccc([N+](=O)[O-])cc2)nc2ccccc12 [Compound 22, 2-(4-Nitrophenyl)quinazolin-4(3H)-one] | > 30 µM | 20.1 ± 0.92 µM | 96.4% | –
CN(C)c1ccc(-c2nc3ccccc3c(=O)[nH]2)cc1 [Compound 23, 2-[4-(Dimethylamino)phenyl]quinazolin-4(3H)-one] | > 30 µM | 5.5 ± 0.1 µM | 99.6% | –
Cc1ccc(-c2nc3ccccc3c(=O)[nH]2)cc1 [Compound 24, 2-(4-Methylphenyl)quinazolin-4(3H)-one] | > 30 µM | – | 96.3% | –
O=c1[nH]c(-c2c(O)cccc2Br)nc2ccccc12 [Compound 25, 2-(2-Bromo-6-hydroxyphenyl)quinazolin-4(3H)-one] | > 30 µM | – | – | –
